The text below walks through data of article PMC10341573, “Design, Synthesis, and Biological Evaluation of Novel Quinazolin-4(3H)-One-Based Histone Deacetylase 6 (HDAC6) Inhibitors for Anticancer Activity” (International Journal of Molecular Sciences, 2023).

Like-named read-outs stand apart in the source and are kept apart here.

One test deals with MCF7. Nature of the test: MTT cell proliferation assay, MCF7. The format is cell-based, human. The conditions noted are these: MTT, 72 h, mean ± SD, triplicate, read-out: IC50 ± SD MCF7. A general note: Formazan colour is commonly taken as a measure of viable cells.
In the next test the test system is B16. Nature of the test: MTT cell proliferation assay, B16. The format is cell-based, murine. The conditions noted are these: Mus musculus, B16; MTT, 72 h; mean ± SD, triplicate; read-out: IC50 ± SD B16.
The next test deals with acetyl α-tubulin. Nature of the test: Western blot of acetyl α-tubulin in MCF7 and HCT-116 cells. The conditions noted are these: 24 h. The format is cell-based, human. How it is done:
HDAC6 plays a crucial role in chromatin modulation and deacetylation of α-tubulin, contributing to the expression of oncogenes driving tumorigenesis. Over time, numerous studies have shown HDAC inhibitors (HDACi) as potential anticancer therapeutics. The HDAC6-inhibitory effect of compound 5c was evaluated by analyzing the protein level expression of acetyl α-tubulin in MCF7 and HCT-116 cells treated with 5c by Western blotting.
On the basis of the results obtained from the cell proliferation assay, further experiments were conducted on MCF7 and HCT-116 cells treated with compound 5c. The cells were harvested, and 0.1 × 10^6 cells were seeded in a 12-well cell culture plate and allowed to adhere properly. The cells were then incubated with 0.1 μM and 1 μM concentrations of compound 5c for 24 h. Cells were pelleted in 1× PBS and lysed using ice-cold RIPA buffer. The protein concentration of the lysate was quantified using the Bradford assay and an equal concentration of sample proteins was run on 12% SDS-PAGE and transferred onto 0.45 μm PVDF membrane (Millipore (St. Louis, MO, USA), Immobilon IPVH00010). […]

The next test addresses T1, HDAC6 (Homo sapiens, UniProt Q9UBN7).
T1 construct: Full-length recombinant HDAC6 was purchased from BPS Bioscience; purchased BPS Bioscience
T1 sequence (Q9UBN7 1-1215): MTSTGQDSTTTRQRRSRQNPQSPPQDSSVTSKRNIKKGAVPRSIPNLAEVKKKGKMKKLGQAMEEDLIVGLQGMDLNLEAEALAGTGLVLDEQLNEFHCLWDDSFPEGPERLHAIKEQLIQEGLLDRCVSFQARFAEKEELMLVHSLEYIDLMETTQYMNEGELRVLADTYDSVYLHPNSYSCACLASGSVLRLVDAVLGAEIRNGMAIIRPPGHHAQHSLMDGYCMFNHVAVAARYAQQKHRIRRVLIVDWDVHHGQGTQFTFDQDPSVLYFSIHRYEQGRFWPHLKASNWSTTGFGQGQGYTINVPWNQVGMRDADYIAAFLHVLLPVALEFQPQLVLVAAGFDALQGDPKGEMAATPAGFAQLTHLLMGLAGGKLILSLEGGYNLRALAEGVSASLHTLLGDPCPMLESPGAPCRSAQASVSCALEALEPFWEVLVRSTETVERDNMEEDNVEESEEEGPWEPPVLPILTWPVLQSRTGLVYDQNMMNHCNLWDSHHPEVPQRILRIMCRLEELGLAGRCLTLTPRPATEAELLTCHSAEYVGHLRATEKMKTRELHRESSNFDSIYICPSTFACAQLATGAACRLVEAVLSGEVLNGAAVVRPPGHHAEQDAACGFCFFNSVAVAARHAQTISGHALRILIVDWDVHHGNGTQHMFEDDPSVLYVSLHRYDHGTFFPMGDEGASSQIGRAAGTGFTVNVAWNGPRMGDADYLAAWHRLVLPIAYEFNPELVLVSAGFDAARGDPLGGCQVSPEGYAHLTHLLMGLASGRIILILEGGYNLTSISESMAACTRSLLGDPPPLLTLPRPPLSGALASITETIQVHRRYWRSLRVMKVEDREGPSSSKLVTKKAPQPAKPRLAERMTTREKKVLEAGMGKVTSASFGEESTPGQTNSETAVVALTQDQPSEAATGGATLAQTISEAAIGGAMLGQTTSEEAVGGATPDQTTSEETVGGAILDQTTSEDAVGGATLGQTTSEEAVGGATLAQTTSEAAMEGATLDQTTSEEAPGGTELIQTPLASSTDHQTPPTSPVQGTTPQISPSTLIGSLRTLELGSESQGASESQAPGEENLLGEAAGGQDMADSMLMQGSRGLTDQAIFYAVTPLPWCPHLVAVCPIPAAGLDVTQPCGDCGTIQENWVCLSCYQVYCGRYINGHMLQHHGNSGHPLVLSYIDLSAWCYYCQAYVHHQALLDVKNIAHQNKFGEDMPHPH
Nature of the test: HDAC enzyme activity assay (fluorogenic, Boc-Lys(acetyl)-AMC), HDAC6. The conditions noted are these: class IIb HDAC6; mean ± SD, triplicate. The class given is biochemical.

For the next test, the system named is HEK 293. In words: MTT cell proliferation assay, HEK 293. The format is cell-based, human. The conditions noted are these: Homo sapiens, HEK293; MTT, 72 h; mean ± SD, triplicate; read-out: IC50 ± SD HEK 293.
Another test relates to MCF7 cells. In words: Cell-cycle analysis by flow cytometry. The class given is cell-based, human. The protocol:
Cell-cycle distribution analysis was carried out further to evaluate the effect of 5c on HDAC inhibition, as HDCA inhibitors are mainly known to target genes regulating the cell cycle. The 5c-treated MCF7 cells were subjected to cell-cycle analysis by flow cytometry.
Cell-cycle analysis was carried out using a cell-cycle analysis kit (Sigma-Aldrich, MAK344) according to the protocol given by the manufacturer. MCF7 cells were treated with DMSO or 0.1 μM and 1 μM concentrations of compound 5c and incubated for 48 h. Cells were then trypsinized and pelleted down. The pellets were washed with 1× cell-cycle buffer and fixed in ice-cold 70% ethanol for 1 h at 4 °C. The fixated cells were treated with ribonuclease A (RNase A) and stained with PI at room temperature for 30 min. Analysis was carried out using FlowJo 10.7.2..

Another test relates to acetyl-H3. In words: Western blot of acetyl-H3 in MCF7 and HCT-116 cells. The format is cell-based, human. The conditions noted are these: compared to untreated control.

As a reminder, the IC50 is the concentration that inhibits the measured activity by half. On to `Cc1ccc(-n2c(SCc3ccc(C(=O)NO)cc3)nc3ccccc3c2=O)cc1` [Compound 5c, N-hydroxy-4-(((4-oxo-3-(p-tolyl)-3,4-dihydroquinazolin-2-yl)thio)methyl)benzamide], for which the half-inhibitory concentration (IC50) in the test on MCF7 (Homo sapiens, MCF7, 72 h) came out at 13.7 µM; in the test with MCF7, 13.7 ± 0.83 µM; with B16, 15 ± 3.34 µM; against HDAC6, 0.58 ± 0.05 µM; in the test on HEK 293 it was 35.1 ± 18.7 µM. Further, the “concentration at which heightened acetylation of α-tubulin starts” value in the test with acetyl α-tubulin was 0.1 to 1 µM. Also, the “cell population in G2/M phase” value in the test with MCF7 cells (MCF7, 0.1 μM, 48 h) was “significant increase”. Further, the “cell population in the G1 and S phases” value in the test with MCF7 cells (MCF7, 0.1 μM, 48 h) is recorded as “slight reduction”. For the same compound, the “effect on cells at 1 μM” value in the test on MCF7 cells (MCF7, 1 μM) is “necrosis and cell death”. Further, the “acetylation of H3” value with acetyl-H3 is “increase in acetylation of H3, but only at a higher concentration”.
